In PubChem BioAssay AID256 (DTP/NCI, 2004):
Values joined by “and” are separate entries in the source; they are usually repeats but may differ in a detail not shown here. Identical values can stand only once. Inconclusive results and toxic doses are left out. Rule for the calls: active = survival T/C of 150% or more; inactive = T/C below 125% in these data.

Tested on: CD2F1 mice, L1210 leukemia ip, survival T/C
Assay: NCI In Vivo Anticancer Drug Screen. Data for tumor model L1210 Leukemia (intraperitoneal) in CD2F1 (CDF1) mice
Details: higher = longer survival
Procedure, shortened: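 Read-out first: treated-group measurement over vehicle-control measurement, expressed as a ratio. Animals bore a transplanted tumor line and were dosed with compound or vehicle.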

[1] = endpoint: mean survival time, dose: 25.0 mg/kg/injection, schedule: Q04DX002 (ip), vehicle: saline with Tween-80
[2] = endpoint: mean survival time, dose: 50.0 mg/kg/injection, schedule: Q04DX002 (ip), vehicle: saline with Tween-80
[3] = endpoint: mean survival time, dose: 3.13 mg/kg/injection, schedule: Q01DX009 (ip), vehicle: saline
[4] = endpoint: mean survival time, dose: 100.0 mg/kg/injection, schedule: Q01DX009 (ip), vehicle: saline with Tween-80
[5] = endpoint: mean survival time, dose: 200.0 mg/kg/injection, schedule: Q01DX009 (ip), vehicle: saline with Tween-80
[6] = endpoint: mean survival time, dose: 400.0 mg/kg/injection, schedule: Q01DX009 (ip), vehicle: saline with Tween-80
[7] = endpoint: mean survival time, dose: 75.0 mg/kg/injection, schedule: Q01DX001 (ip), vehicle: saline
[8] = endpoint: mean survival time, dose: 100.0 mg/kg/injection, schedule: Q01DX001 (ip), vehicle: saline with Tween-80
[9] = endpoint: mean survival time, dose: 200.0 mg/kg/injection, schedule: Q01DX001 (ip), vehicle: saline with Tween-80
[10] = endpoint: mean survival time, dose: 400.0 mg/kg/injection, schedule: Q01DX001 (ip), vehicle: saline with Tween-80
[11] = endpoint: mean survival time, dose: 100.0 mg/kg/injection, schedule: Q04DX003 (ip), vehicle: saline with Tween-80
[12] = endpoint: mean survival time, dose: 200.0 mg/kg/injection, schedule: Q04DX003 (ip), vehicle: saline with Tween-80
[13] = endpoint: mean survival time, dose: 400.0 mg/kg/injection, schedule: Q04DX003 (ip), vehicle: saline with Tween-80

Measured: T/C

CC1OC(OC2C(O)CC(OC3C(O)CC(OC4CCC5(C)C(CCC6C5CCC5(C)C(C7=CC(=O)OC7)CCC65O)C4)OC3C)OC2C)CC(O)C1O (stereo not drawn)
inactive: endpoint: median survival time, dose: 0.5 mg/kg/injection, schedule: Q01DX005 (iv), vehicle: water 109 % of control | endpoint: median survival time, dose: 0.5 mg/kg/injection, schedule: Q01DX010 (ip), vehicle: water 106 % of control | endpoint: median survival time, dose: 1.0 mg/kg/injection, schedule: Q01DX005 (iv), vehicle: water 108 % of control | endpoint: median survival time, dose: 1.0 mg/kg/injection, schedule: Q01DX010 (ip), vehicle: water 108 % of control | endpoint: median survival time, dose: 1.0 mg/kg/injection, schedule: Q04DX003 (ip), vehicle: water 101 % of control | endpoint: median survival time, dose: 1.0 mg/kg/injection, schedule: Q04DX003 (iv), vehicle: water 111 % of control | endpoint: median survival time, dose: 2.0 mg/kg/injection, schedule: Q01DX005 (iv), vehicle: water 97 % of control | endpoint: median survival time, dose: 2.0 mg/kg/injection, schedule: Q01DX010 (ip), vehicle: water 109 % of control | endpoint: median survival time, dose: 2.0 mg/kg/injection, schedule: Q04DX003 (ip), vehicle: water 101 % of control | endpoint: median survival time, dose: 2.0 mg/kg/injection, schedule: Q04DX003 (iv), vehicle: water 109 % of control | endpoint: median survival time, dose: 4.0 mg/kg/injection, schedule: Q01DX005 (iv), vehicle: water 108 % of control | endpoint: median survival time, dose: 4.0 mg/kg/injection, schedule: Q01DX010 (ip), vehicle: water 108 % of control | endpoint: median survival time, dose: 4.0 mg/kg/injection, schedule: Q04DX003 (ip), vehicle: water 107 % of control | endpoint: median survival time, dose: 4.0 mg/kg/injection, schedule: Q04DX003 (iv), vehicle: water 110 % of control | endpoint: median survival time, dose: 8.0 mg/kg/injection, schedule: Q01DX005 (iv), vehicle: water 90 % of control | endpoint: median survival time, dose: 8.0 mg/kg/injection, schedule: Q04DX003 (ip), vehicle: water 98 % of control | endpoint: median survival time, dose: 8.0 mg/kg/injection, schedule: Q04DX003 (iv), vehicle: water 110 % of control | endpoint: median survival time, dose: 16.0 mg/kg/injection, schedule: Q04DX003 (ip), vehicle: water 101 % of control | endpoint: median survival time, dose: 16.0 mg/kg/injection, schedule: Q04DX003 (iv), vehicle: water 76 % of control

O=C1C=CC(=NCl)C=C1
inactive: endpoint: mean survival time, dose: 2.5 mg/kg/injection, schedule: Q04DX003 (ip), vehicle: saline with Tween-80 100 % of control | endpoint: mean survival time, dose: 5.0 mg/kg/injection, schedule: Q04DX003 (ip), vehicle: saline with Tween-80 110 % of control

O=C(CC(=O)C(F)(F)F)C(F)(F)F.[C-]#[O+].[C-]#[O+].[Mn].c1ccc([PH+](c2ccccc2)c2ccccc2)cc1.c1ccc([PH+](c2ccccc2)c2ccccc2)cc1
inactive: endpoint: mean survival time, dose: 12.5 mg/kg/injection, schedule: Q04DX002 (ip), vehicle: saline with Tween-80 91 % of control | [1] 91 % of control | [2] 95 % of control

CC(=N\[O-])/C(C)=N/O.CC(=N\[O-])/C(C)=N/O.CC(=O)[O-].CC(=O)[O-].O.[Rh+2].[Rh+2]
inactive: endpoint: mean survival time, dose: 0.78 mg/kg/injection, schedule: Q01DX009 (ip), vehicle: saline 88 % of control | [3] 96 % of control | endpoint: mean survival time, dose: 6.25 mg/kg/injection, schedule: Q01DX009 (ip), vehicle: saline 91 % of control | endpoint: mean survival time, dose: 12.5 mg/kg/injection, schedule: Q01DX009 (ip), vehicle: Klucel (hydroxypropylcellulose) (HPC) 95 % of control | endpoint: mean survival time, dose: 12.5 mg/kg/injection, schedule: Q01DX009 (ip), vehicle: saline 93 % of control

C[N+](C)(C)/N=C/c1ccc(Cl)cc1
inactive: [2] 93 % of control

O=C(Cc1ccccc1)NC(CSSCC(NC(=O)Cc1ccccc1)C(=O)O)C(=O)O (stereo not drawn)
inactive: [4] 101 % of control | [5] 98 % of control | [6] 93 % of control

COc1cc(OC)c(/C=C/c2cc[n+](C)c3ccccc23)c(OC)c1
inactive: endpoint: mean survival time, dose: 1.56 mg/kg/injection, schedule: Q01DX009 (ip), vehicle: saline 106 % of control | endpoint: mean survival time, dose: 1.56 mg/kg/injection, schedule: Q04DX002 (ip), vehicle: saline 100 % of control | [3] 109 % of control | endpoint: mean survival time, dose: 3.13 mg/kg/injection, schedule: Q04DX002 (ip), vehicle: saline 98 % of control | endpoint: mean survival time, dose: 6.25 mg/kg/injection, schedule: Q04DX002 (ip), vehicle: saline 88 % of control and 91 % of control

Cn1c(/C=C/C(=O)O)cc2ccccc21
inactive: [7] 108 % of control | endpoint: mean survival time, dose: 150.0 mg/kg/injection, schedule: Q01DX001 (ip), vehicle: saline 106 % of control | endpoint: mean survival time, dose: 300.0 mg/kg/injection, schedule: Q01DX001 (ip), vehicle: saline 106 % of control

COC(=O)C1=NC=NC1=[N+]=[N-]
inactive: endpoint: mean survival time, dose: 10.0 mg/kg/injection, schedule: Q01DX001 (ip), vehicle: saline 96 % of control | endpoint: mean survival time, dose: 20.0 mg/kg/injection, schedule: Q01DX001 (ip), vehicle: saline 93 % of control

CSc1nc(N)c(C#N)cc1C#N
inactive: [8] 100 % of control | [9] 89 % of control | [10] 89 % of control

COC(=O)C1N=C1c1ccccc1.COC(=O)C1N=C1c1ccccc1.[Cl][Pd][Cl] (stereo not drawn)
inactive: endpoint: mean survival time, dose: 3.13 mg/kg/injection, schedule: Q04DX003 (ip), vehicle: distilled water + Tween-80 95 % of control | endpoint: mean survival time, dose: 6.25 mg/kg/injection, schedule: Q04DX003 (ip), vehicle: distilled water + Tween-80 103 % of control | endpoint: mean survival time, dose: 12.5 mg/kg/injection, schedule: Q04DX003 (ip), vehicle: distilled water + Tween-80 91 % of control | endpoint: mean survival time, dose: 25.0 mg/kg/injection, schedule: Q04DX003 (ip), vehicle: distilled water + Tween-80 103 % of control | endpoint: mean survival time, dose: 50.0 mg/kg/injection, schedule: Q04DX003 (ip), vehicle: distilled water + Tween-80 101 % of control | endpoint: mean survival time, dose: 100.0 mg/kg/injection, schedule: Q04DX003 (ip), vehicle: distilled water + Tween-80 101 % of control | endpoint: mean survival time, dose: 200.0 mg/kg/injection, schedule: Q04DX003 (ip), vehicle: distilled water + Tween-80 103 % of control

N#CCCCN1CCOCC1
inactive: endpoint: mean survival time, dose: 100.0 mg/kg/injection, schedule: Q01DX009 (ip), vehicle: saline 101 % of control | endpoint: mean survival time, dose: 200.0 mg/kg/injection, schedule: Q01DX009 (ip), vehicle: saline 102 % of control | endpoint: mean survival time, dose: 400.0 mg/kg/injection, schedule: Q01DX009 (ip), vehicle: saline 98 % of control

CSc1nn(C2OC(CO)C(O)C2O)c(=O)[nH]c1=O (stereo not drawn)
inactive: endpoint: mean survival time, dose: 12.5 mg/kg/injection, schedule: Q01DX005 (ip), vehicle: distilled water + Tween-80 102 % of control | endpoint: mean survival time, dose: 25.0 mg/kg/injection, schedule: Q01DX005 (ip), vehicle: distilled water + Tween-80 95 % of control | endpoint: mean survival time, dose: 50.0 mg/kg/injection, schedule: Q01DX005 (ip), vehicle: distilled water + Tween-80 98 % of control | endpoint: mean survival time, dose: 100.0 mg/kg/injection, schedule: Q01DX005 (ip), vehicle: distilled water + Tween-80 102 % of control | endpoint: mean survival time, dose: 200.0 mg/kg/injection, schedule: Q01DX005 (ip), vehicle: distilled water + Tween-80 104 % of control

O=[N+]([O-])c1ccc(/C=C/C=C/c2ccccc2)cc1
inactive: [11] 101 % of control | [12] 98 % of control | [13] 95 % of control

O=C1OC(c2ccccc2)=N/C1=C\c1cccc(O)c1
inactive: [4] 104 % of control | [5] 109 % of control | [6] 98 % of control

CCCC(C(=O)O)C(CCC)C(=O)O (stereo not drawn)
inactive: [11] 96 % of control | [12] 104 % of control | [13] 101 % of control

CCCCCCCCCCCCCCCCCCCCC1CCCCC1
inactive: [8] 91 % of control | [9] 98 % of control | [10] 92 % of control

Cc1cccc(C(=O)NN)c1
inactive: [7] 106 % of control

CC12CCC(C/C1=C\C#N)C(C)(C)O2 (stereo not drawn)
inactive: endpoint: mean survival time, dose: 50.0 mg/kg/injection, schedule: Q01DX009 (ip), vehicle: Klucel (hydroxypropylcellulose) (HPC) 97 % of control | endpoint: mean survival time, dose: 100.0 mg/kg/injection, schedule: Q01DX009 (ip), vehicle: Klucel (hydroxypropylcellulose) (HPC) 94 % of control | endpoint: mean survival time, dose: 200.0 mg/kg/injection, schedule: Q01DX009 (ip), vehicle: Klucel (hydroxypropylcellulose) (HPC) 105 % of control

O=C(O)CCC(=O)NNC(=O)c1cccnc1
inactive: [1] 107 % of control | [2] 104 % of control | [8] 106 % of control | endpoint: mean survival time, dose: 100.0 mg/kg/injection, schedule: Q04DX002 (ip), vehicle: saline with Tween-80 107 % of control | [9] 106 % of control | [10] 98 % of control
